Reference: PubChem BioAssay (NCI)
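Five compound concentrations were applied to cells in 96-well plates for 48 hours; endpoints were derived by simple linear interpolation of the resulting dose-response curve. TGI marks complete inhibition of growth.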

Tests used:
Assay in all cases: NCI anticancer screen, dose series, 48 h
[1] = system: 786-0 renal
[2] = system: SF-268 CNS
[3] = system: SK-MEL-28 melanoma
[4] = system: HT29 colon
[5] = system: HOP-92 NSCLC
[6] = system: OVCAR-5 ovarian
[7] = system: U251 CNS
[8] = system: SF-295 CNS
[9] = system: T-47D breast
[10] = system: K-562 leukemia

SMILES	TGI [1]	TGI [2]	TGI [3]	TGI [4]	TGI [5]	TGI [6]	TGI [7]	TGI [8]	TGI [9]	TGI [10]
CC1(c2ccc(Cl)cc2)CC(c2ccc(Cl)cc2)=C(C#N)C(=C(C#N)C#N)N1 (stereo not given)	24.7 µM	22.6 µM	> 100 µM	> 100 µM	11 µM	61.9 µM	29.5 µM	32.6 µM	40 µM	66.2 µM
CC(=O)Nc1ccc(CNc2cc(=O)[nH]c(=O)[nH]2)cc1	> 100 µM	> 100 µM	> 100 µM	> 100 µM	> 100 µM	> 100 µM	> 100 µM	> 100 µM	> 100 µM	> 100 µM
c1ccc(N=C2SC(=NNc3ccccc3)SC2=Nc2ccccc2)cc1	> 100 µM	> 100 µM	> 100 µM	> 100 µM	> 100 µM	> 100 µM	> 100 µM	> 100 µM	> 100 µM	> 100 µM
NC1C/C(=N\O)c2c(I)sc(I)c21 (stereo not given)	> 50.9 µM	35.3 µM	32.5 µM	48.8 µM	34.5 µM	31.4 µM	37.4 µM	31.8 µM	52.3 µM	> 74.1 µM
C/C(=N\Nc1ccc([N+](=O)[O-])cc1[N+](=O)[O-])c1ccc2ccccc2n1	> 100 µM	> 100 µM	> 100 µM	> 100 µM	> 100 µM	> 100 µM	> 100 µM	> 100 µM	> 100 µM	> 100 µM
O=C1c2ccccc2CC12Cc1cc3c(cc1C2=O)CCC3 (stereo not given)	> 100 µM	> 100 µM	> 100 µM	> 100 µM	> 100 µM	> 100 µM	> 100 µM	> 100 µM	> 100 µM	> 100 µM
Nc1nc(Cl)cc(NCC2(CO)CCC(Cc3ccccc3)C2)n1 (stereo not given)	> 100 µM	> 100 µM	> 100 µM	> 69.4 µM	> 93.8 µM	> 100 µM	> 100 µM	> 100 µM	> 70.3 µM	64.8 µM
CC(C)(C)c1ccc(CN2CCN(C(c3ccccc3)c3ccc(Cl)cc3)CC2)cc1 (stereo not given)	> 100 µM	> 100 µM	> 100 µM	56.9 µM	> 100 µM	> 100 µM	> 100 µM	> 100 µM	54.9 µM	> 100 µM
O=C(Cn1nc(Br)c(Br)c1Br)c1ccccc1	77.4 µM	> 100 µM	> 100 µM	43.5 µM	66.8 µM	> 100 µM	> 100 µM	91.5 µM	89.1 µM	28.7 µM
CCC1CC2CN3CCc4c([nH]c5c(-c6c(OC)ccc7c8c([nH]c67)[C@]6(C(=O)OC)CC7CC(CC)C6N(CC8)C7)c(O)ccc45)[C@](C(=O)OC)(C2)C13 (stereo not given in full)	28 µM	32.9 µM	29.9 µM	18.6 µM	26.6 µM	33.2 µM	25.7 µM	36.1 µM	23 µM	27 µM
CC(=O)O[C@H]1C[C@]2(C)C(CCC3O[C@@]32C)[C@@]2(CC(c3ccoc3)OC2O)[C@@H]1C (stereo not given in full)	> 100 µM	> 100 µM	> 100 µM	> 100 µM	> 100 µM	> 100 µM	> 100 µM	> 100 µM	> 100 µM	> 100 µM
Cc1cc(N(CCC#N)CCC#N)ccc1/C(N=Nc1cccc([N+](=O)[O-])c1)=N/NC(=O)c1cc(Cl)ccc1O	> 100 µM	> 100 µM	> 100 µM	> 100 µM	76.3 µM	> 100 µM	> 100 µM	> 100 µM	71 µM	> 100 µM
CCCN1C(=O)CCC2=C1CCc1c2ccc(Cl)c1Cl	> 100 µM	> 100 µM	> 100 µM	> 100 µM	56.6 µM	82 µM	> 100 µM	> 100 µM	> 100 µM	> 100 µM
CCSC1=N/C(=C\c2ccccc2O)C(Nc2ccc(C)cc2)=N1	> 100 µM	> 100 µM	> 100 µM	> 100 µM	> 100 µM	> 100 µM	> 100 µM	> 100 µM	> 100 µM	> 100 µM
O=C(O)CSc1cc(-c2ccccc2)nc2ccccc12	> 100 µM	> 100 µM	> 100 µM	> 100 µM	> 100 µM	> 100 µM	> 100 µM	> 100 µM	> 100 µM	> 100 µM
O=C1c2cc3ccccc3cc2C2(c3ccc(Cl)cc3)N[C@H]3CCCC[C@@H]3N12 (stereo not given in full)	23.3 µM	39 µM	28.1 µM	53.5 µM	98.5 µM	60.2 µM	30.1 µM	32.4 µM	52.7 µM	> 100 µM
O=C1CCCc2c1c1c(n2Cc2ccccc2)-c2ccccc2C1=O	66.5 µM	64.1 µM	55.1 µM	> 100 µM	99.7 µM	> 100 µM	43.9 µM	37.5 µM	33.3 µM	46.6 µM
CC(=O)OCC1OC(n2c(N)c(C#N)c(-c3ccccc3)c(C#N)c2=S)C(OC(C)=O)C(OC(C)=O)C1OC(C)=O (stereo not given)	> 86.4 µM	> 77.5 µM	> 100 µM	> 100 µM	50.9 µM	> 100 µM	59.1 µM	> 93 µM	> 100 µM	> 100 µM
O=C1C2C=CC1C1C(=O)OC(=O)C21 (stereo not given)	> 100 µM	> 100 µM	> 100 µM	> 100 µM	> 100 µM	> 100 µM	> 100 µM	> 100 µM	> 100 µM	> 100 µM
CC(C)C(C/C=C1/CC(CO)(COC(=O)CC(C(C)C)C(C)C)OC1=O)C(C)C (stereo not given)	23.3 µM	23.1 µM	27.7 µM	30.5 µM	18.7 µM	22.1 µM	25.3 µM	16.5 µM	22.9 µM	> 36.3 µM
Cc1ccc(/C=C/C(=O)c2c([O-])on[n+]2-c2ccccc2)cc1	3.78 µM	> 37.5 µM	5.75 µM	3.84 µM	16.8 µM	15.5 µM	10.7 µM	> 46.4 µM	9.49 µM	> 100 µM
CN1C(c2ccccc2)=CC(=O)C(O)=C(c2ccccc2)S1(=O)=O	> 100 µM	> 100 µM	> 100 µM	> 100 µM	> 100 µM	> 100 µM	> 100 µM	> 100 µM	> 100 µM	> 100 µM
N#CCC(=O)Nn1c(CC#N)nnc1Cc1ccccc1	> 100 µM	> 100 µM	> 100 µM	> 100 µM	> 100 µM	> 100 µM	> 100 µM	> 100 µM	> 100 µM	> 100 µM
Cc1ccc2c(c1)NC(=O)CCSSCCC(=O)N2	> 100 µM	> 100 µM	> 100 µM	> 100 µM	> 100 µM	> 100 µM	> 100 µM	> 100 µM	> 100 µM	> 100 µM
CC(=O)Nc1ncc(Sc2ccccc2C(=O)O)s1	> 100 µM	> 100 µM	> 100 µM	> 100 µM	> 100 µM	> 100 µM	> 100 µM	> 100 µM	> 100 µM	> 100 µM
CC(C)CCC1(O)O[C@H]2C[C@H]3[C@@H]4CCC5CC(=O)C=C[C@]5(C)[C@H]4CC[C@]3(C)[C@H]2[C@@H]1C (stereo not given in full)	25.4 µM	28.2 µM	25 µM	26.9 µM	16 µM	26.2 µM	23.7 µM	24 µM	25.6 µM	19.3 µM
CC(=O)Oc1ccc2c(c1)c1c(=O)oc(N(C)C)nc1n2Cc1ccccc1	> 100 µM	> 100 µM	> 100 µM	> 100 µM	> 100 µM	> 100 µM	> 100 µM	> 100 µM	> 92.9 µM	> 100 µM
O=C(O)CSCC(=O)Nc1ccc2cccc3c2c1CC3	> 100 µM	> 100 µM	> 100 µM	> 100 µM	> 100 µM	> 100 µM	> 100 µM	> 100 µM	> 100 µM	> 100 µM
O=C(CSc1nc(=O)[nH]c2nc[nH]c12)Nc1ccccc1	> 100 µM	> 100 µM	> 100 µM	> 100 µM	> 100 µM	> 100 µM	> 100 µM	> 100 µM	> 100 µM	> 100 µM
COc1ccc(C2SCC(=O)N2c2ccc(-c3ccc(-n4c(-c5ccccc5)nc5ccccc5c4=O)cc3)cc2)cc1 (stereo not given)	> 100 µM	> 100 µM	> 100 µM	30.5 µM	> 100 µM	87.2 µM	> 100 µM	> 100 µM	> 100 µM	> 100 µM
